Experiments:
[1] = tested on: CD79a+ cells over CD79a- cells of a diffuse large B-cell lymphoma patient; assay: ex vivo selectivity of compounds to kill cancerous versus non-cancerous cells, excised lymph node of DLBCL patient (Example 8); assay type: cell-based, human; details: fraction of live cancerous cells of live total cells relative to DMSO control; dissociated lymph node cells; <1 = selectively kills cancerous cells
Method: Monolayers were incubated overnight (18 h). […] Unstained cells were considered non-cancerous cells.

[2] = tested on: CD20+ cells over CD20- cells of a B-cell lymphoblastic lymphoma patient; assay: ex vivo selectivity of compounds to kill cancerous versus non-cancerous cells, pleural effusion of B-LBL patient (Example 7); assay type: cell-based, human; details: fraction of live cancerous cells of live total cells relative to DMSO control, <1 = selectively kills cancerous cells

| SMILES | value/selectivity [1] | value/selectivity determined according to the present invention [2] |
| --- | --- | --- |
| Nc1nc(Cl)nc2c1ncn2[C@H]1C[C@H](O)[C@@H](CO)O1 [cladribine] | 0.73 | – |
| Sc1ncnc2nc[nH]c12 [6-mercaptopurine] | – | 0.58 |
| CC(C)C[C@H](NC(=O)[C@H](Cc1ccccc1)NC(=O)c1cnccn1)B(O)O [bortezomib] | 0.59 | 0.50 |

Reference: patent US20210181183A1, “METHODS FOR DETERMINING SELECTIVITY OF TEST COMPOUNDS” (CEMM - FORSCHUNGSZENTRUM FÜR MOLEKULARE MEDIZIN GmBH, priority 2017, published 2021)
